Assay results published in ChEMBL document CHEMBL5625232, “Development of selective class I protein arginine methyltransferase inhibitors through fragment-based drug design approach” (Eur J Med Chem, 2023).
≈ marks a conversion by molar mass, not a printed value.

How the values were obtained:
[1] = target: T1, Histone-lysine N-methyltransferase SUV39H1 (Homo sapiens) (UniProt O43463); assay: Displacement of 3H-SAM from SUV39H1 (unknown origin) using biotinylated-histone H3 peptide as substrate at 10 uM incubated for 45 mins by SPA assay relative to control
T1 sequence (whole entry): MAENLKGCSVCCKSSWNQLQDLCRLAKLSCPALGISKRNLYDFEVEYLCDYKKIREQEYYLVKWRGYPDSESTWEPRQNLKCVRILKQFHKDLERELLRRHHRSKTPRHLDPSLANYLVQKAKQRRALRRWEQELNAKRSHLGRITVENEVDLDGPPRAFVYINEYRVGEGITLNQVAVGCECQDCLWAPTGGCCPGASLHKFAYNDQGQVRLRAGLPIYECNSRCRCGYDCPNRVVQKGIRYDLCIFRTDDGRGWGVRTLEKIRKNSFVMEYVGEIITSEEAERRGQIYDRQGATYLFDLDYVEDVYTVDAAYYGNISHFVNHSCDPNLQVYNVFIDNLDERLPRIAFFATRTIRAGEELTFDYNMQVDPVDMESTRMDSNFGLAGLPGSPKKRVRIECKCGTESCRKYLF

[2] = target: T2, Histone-lysine N-methyltransferase SMYD3 (Homo sapiens) (UniProt Q9H7B4); assay: Displacement of 3H-SAM from SMYD3 (unknown origin) using biotinylated-MAP3K2 as substrate at 10 uM incubated for 45 mins by SPA assay relative to control
T2 sequence (whole entry): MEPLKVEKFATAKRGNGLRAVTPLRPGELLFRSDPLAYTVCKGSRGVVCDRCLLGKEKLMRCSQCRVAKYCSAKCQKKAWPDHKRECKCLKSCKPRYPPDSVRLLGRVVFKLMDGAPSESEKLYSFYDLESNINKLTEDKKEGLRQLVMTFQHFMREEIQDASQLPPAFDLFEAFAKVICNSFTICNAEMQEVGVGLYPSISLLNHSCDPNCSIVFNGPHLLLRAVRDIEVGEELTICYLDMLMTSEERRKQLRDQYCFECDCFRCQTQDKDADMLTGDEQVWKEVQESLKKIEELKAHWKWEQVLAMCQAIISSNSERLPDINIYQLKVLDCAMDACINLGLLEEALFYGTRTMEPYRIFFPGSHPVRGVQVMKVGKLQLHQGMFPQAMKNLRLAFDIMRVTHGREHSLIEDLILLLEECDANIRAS

[3] = target: T3, Histone-arginine methyltransferase CARM1 (Homo sapiens, UniProt Q86X55); assay: Binding affinity to PRMT4 (unknown origin) assessed as dissociation constant by ITC analysis
T3 sequence (Q86X55 whole entry): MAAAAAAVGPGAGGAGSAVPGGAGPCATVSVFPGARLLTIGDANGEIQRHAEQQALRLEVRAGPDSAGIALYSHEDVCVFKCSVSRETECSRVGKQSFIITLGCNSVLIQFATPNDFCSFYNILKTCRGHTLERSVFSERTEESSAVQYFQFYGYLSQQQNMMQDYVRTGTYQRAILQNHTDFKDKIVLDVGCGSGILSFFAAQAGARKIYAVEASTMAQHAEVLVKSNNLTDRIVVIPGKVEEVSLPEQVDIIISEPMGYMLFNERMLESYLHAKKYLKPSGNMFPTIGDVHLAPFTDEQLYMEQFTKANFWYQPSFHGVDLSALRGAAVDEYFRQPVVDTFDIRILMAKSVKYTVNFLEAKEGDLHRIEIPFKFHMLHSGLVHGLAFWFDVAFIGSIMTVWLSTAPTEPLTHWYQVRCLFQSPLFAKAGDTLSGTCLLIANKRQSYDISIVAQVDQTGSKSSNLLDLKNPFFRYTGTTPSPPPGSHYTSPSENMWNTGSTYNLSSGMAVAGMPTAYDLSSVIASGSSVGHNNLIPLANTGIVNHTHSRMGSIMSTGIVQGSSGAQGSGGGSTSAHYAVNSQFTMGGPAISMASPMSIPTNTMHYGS

[4] = Aqueous solubility of compound at pH 7.4 incubated for 24 hrs by HPLC-UV spectroscopy; format: physicochemical; details: aqueous medium
[5] = Lipophilicity, log D of compound in 1-octanol at pH 7.4 incubated for 4 hrs by HPLC-UV analysis; format: physicochemical; details: 1-octanol/aqueous phase
[6] = target: T1, Histone-lysine N-methyltransferase SUV39H1 (Homo sapiens); assay: Displacement of 3H-SAM from SUV39H1 (unknown origin) using biotinylated-histone H3 peptide as substrate at 30 uM incubated for 45 mins by SPA assay relative to control
[7] = target: T2, Histone-lysine N-methyltransferase SMYD3 (Homo sapiens); assay: Displacement of 3H-SAM from SMYD3 (unknown origin) using biotinylated-MAP3K2 as substrate at 30 uM incubated for 45 mins by SPA assay relative to control
[8] = target: Histone-lysine N-methyltransferase, H3 lysine-79 specific (Homo sapiens) (UniProt Q8TEK3); assay: Displacement of 3H-SAM from DOT1L (unknown origin) at 30 uM incubated for 1 hr in presence of substrate by SPA assay relative to control
Sequence of Histone-lysine N-methyltransferase, H3 lysine-79 specific (Homo sapiens) (Q8TEK3 whole entry, looked up): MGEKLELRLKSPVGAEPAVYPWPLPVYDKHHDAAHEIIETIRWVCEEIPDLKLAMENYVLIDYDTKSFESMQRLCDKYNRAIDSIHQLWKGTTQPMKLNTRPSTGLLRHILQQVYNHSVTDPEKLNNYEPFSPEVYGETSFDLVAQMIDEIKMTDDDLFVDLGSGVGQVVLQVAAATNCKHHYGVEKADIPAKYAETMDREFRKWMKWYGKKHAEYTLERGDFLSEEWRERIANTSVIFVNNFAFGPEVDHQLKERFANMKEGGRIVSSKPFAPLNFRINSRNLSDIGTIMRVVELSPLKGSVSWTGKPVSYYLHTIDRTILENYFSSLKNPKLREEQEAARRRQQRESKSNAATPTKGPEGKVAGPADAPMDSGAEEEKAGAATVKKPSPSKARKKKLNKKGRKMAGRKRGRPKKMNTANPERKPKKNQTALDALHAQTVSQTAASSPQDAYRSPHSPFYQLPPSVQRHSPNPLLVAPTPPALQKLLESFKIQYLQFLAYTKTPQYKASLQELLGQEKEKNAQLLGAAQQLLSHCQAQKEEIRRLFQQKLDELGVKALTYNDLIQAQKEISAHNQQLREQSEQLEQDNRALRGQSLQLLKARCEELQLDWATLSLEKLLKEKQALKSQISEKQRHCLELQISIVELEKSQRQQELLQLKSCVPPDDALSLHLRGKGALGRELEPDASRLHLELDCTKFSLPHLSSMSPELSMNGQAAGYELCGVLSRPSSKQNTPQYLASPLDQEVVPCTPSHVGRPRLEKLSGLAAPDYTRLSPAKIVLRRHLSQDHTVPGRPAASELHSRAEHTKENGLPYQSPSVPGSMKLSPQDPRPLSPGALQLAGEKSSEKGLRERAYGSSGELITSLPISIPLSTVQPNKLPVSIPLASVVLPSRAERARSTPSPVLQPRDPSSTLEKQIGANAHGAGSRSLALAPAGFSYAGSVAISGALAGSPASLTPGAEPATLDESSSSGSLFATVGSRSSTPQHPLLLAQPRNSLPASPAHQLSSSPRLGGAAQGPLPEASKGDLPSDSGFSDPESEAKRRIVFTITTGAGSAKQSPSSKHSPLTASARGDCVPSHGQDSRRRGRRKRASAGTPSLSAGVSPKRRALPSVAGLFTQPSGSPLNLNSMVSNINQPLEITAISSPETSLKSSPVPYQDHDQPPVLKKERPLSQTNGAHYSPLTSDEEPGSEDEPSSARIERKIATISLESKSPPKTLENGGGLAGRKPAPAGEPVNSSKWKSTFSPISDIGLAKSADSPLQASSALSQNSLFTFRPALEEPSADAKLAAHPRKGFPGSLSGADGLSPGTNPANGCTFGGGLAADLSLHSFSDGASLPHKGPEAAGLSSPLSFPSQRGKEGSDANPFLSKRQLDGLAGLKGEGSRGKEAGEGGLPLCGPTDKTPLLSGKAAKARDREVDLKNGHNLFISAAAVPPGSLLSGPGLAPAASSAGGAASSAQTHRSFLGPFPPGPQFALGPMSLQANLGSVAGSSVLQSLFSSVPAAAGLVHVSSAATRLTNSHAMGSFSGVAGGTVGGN

Row | Compound | inhibition [1] | inhibition [2] | Kd [3] | solubility at 24 h [4] | logD at 4 h [5] | inhibition [6] | inhibition [7] | inhibition [8]
1 | CNCCN1CC[C@@H](NC(=O)c2ccc3c(Nc4ccc(CN)cc4)ncnc3c2)C1 | < 25% | < 25% | 25 µM | 210 µg/mL (≈ 501 µM) | -2.27 | – | – | –
2 | CNCCN1CCC(NC(=O)c2ccc3c(Nc4ccc(CN)cc4)ncnc3c2)C1 (racemic) | – | – | – | 187 µg/mL (≈ 446 µM) | -2.16 | < 25% | < 25% | 11%
3 | CNCCN1CC[C@H](NC(=O)c2ccc3c(Nc4ccc(CN)cc4)ncnc3c2)C1 | < 25% | < 25% | 20 µM | – | – | – | – | –
